Among the data in patent US20250129070A1, “BIFUNCTIONAL ANDROGEN RECEPTOR COMPOUNDS” (priority 2023, published 2025) are EC50 values, retold here.

In general, EC50 refers to the midpoint of the concentration-response curve. Higher therefore signals a need for much substance.

Molecules are shown by their SMILES.

In this test the test system is AR / CBP ternary complex. Kind of test: Ternary complex formation assay (sandwich ELISA, AR capture / CBP detection) in VCaP cell lysates. Type of test: cell-based. Particulars: 1.5 hours treatment, sandwich ELISA (AR capture, CBP or p300 detection). The protocol: Preparation of Mouse Anti-AR Antibody Coated 96 Well Plates
Black MaxiSorp plates: coat with 50 μL of mouse 1/50 diluted AR antibody (Monoclonal Antibody (AR 441 from Thermo Fisher); diluted in phosphate buffered saline (PBS). Spin the liquid to the bottom of the wells, if necessary. Incubate overnight at 4° C. Next day, wash 3 times with 200 μL of TBST. Block with 200 μL of blocking buffer (5% BSA in TBST) at room temperature for 2 hours (BSA: A4503 or A2153 from Sigma). Wash plates 3 times with TBST. Plates are ready for lysates Preparation of dimerizer treated lysates
Culture cells in 96 wells at 50K VCaP cells/well for at least 3 days. Plate in 5% Omega charcoal stripped FBS in total volume of 200 uL. Treat with bifunctional for 1.5 hours by adding 1 μL of 200× stock in DMSO. Aspirate media/compound. Add and pipet-to-mix 70 μL of 1× AlphaLisa Lysis Buffer to each well (Perkin Elmer, AlphaLISA SureFire Ultra, diluted in water). Pipet up and down when adding lysis buffer to disrupt cells. Let lysis proceed for 30 min at 4° C.
Incubate for 1 hour at room temperature. Flick out the lysates. Wash 3 times with TBST. Add 75 μL of rabbit CBP or p300 antibody to each well (diluted 1:5000 in blocking buffer (5% BSA in TBST). CBP antibody: (D6C5) Rabbit mAb #7389; p300 antibody: (D8Z4E) Rabbit mAb #86377. Incubate overnight at 4° C. Wash 3 times with 300 uL TBST, each time on shaker for 5-10 min. Prepare goat anti-rabbit antibody conjugated to HRP (1/100K dilution in blocking buffer) Invitrogen Catalog number: 32260. Add 75 μL of HRP-conjugated goat anti-rabbit antibody. Incubate at room temperature for 1 hour. Flick out the HRP-antibody mixture. Wash 7-8 times with TBST, each time on shaker for 10 min. Later washes try to overflow the wells so that no residual HRP remains bound to the sides of the well. Prepare and add 75 uL/well of QuantaRed Enhance Chemifluorescent HRP Substrate solution. Immediately read fluorescence on BMG ClarioStar (ex: 570/em 585), and repeat the read in 5 minutes and 15 minutes.
In general terms: ELISA stands for enzyme-linked immunosorbent assay.

As for `CC(=O)N1CCc2c(c(N3CCCc4cc(-c5cncs5)c(C(F)F)cc43)nn2C2CCN(CC3C(C)CN(c4ncc(C(=O)NC5C(C)(C)C(Oc6ccc(C#N)c(Cl)c6)C5(C)C)cn4)CC3C)CC2)C1` (stereo not shown) [Compound 422, 2-[4-[[4-[5-acetyl-3-[7-(difluoromethyl)-6-thiazol-5-yl-3,4-dihydro-2H-quinolin-1-yl]-6,7-dihydro-4H-pyrazolo[4,3-c]pyridin-1-yl]-1-piperidyl]methyl]-3,5-dimethyl-1-piperidyl]-N-[3-(3-chloro-4-cyano-phenoxy)-2,2,4,4-tetramethyl-cyclobutyl]pyrimidine-5-carboxamide], the EC50 is < 1 nM.
The same measure for `CC(=O)N1CCc2c(c(N3CCCc4cc(-c5cnn(C)c5)c(C(F)F)cc43)nn2C2CN(CCN3CCN(c4ncc(C(=O)NC5C(C)(C)C(Oc6ccc(C#N)c(Cl)c6)C5(C)C)cn4)CC3)C2)C1` (stereo not shown) [Compound 161, 2-[4-[2-[3-[5-acetyl-3-[7-(difluoromethyl)-6-(1-methylpyrazol-4-yl)-3,4-dihydro-2H-quinolin-1-yl]-6,7-dihydro-4H-pyrazolo[4,3-c]pyridin-1-yl]azetidin-1-yl]ethyl]piperazin-1-yl]-N-[3-(3-chloro-4-cyano-phenoxy)-2,2,4,4-tetramethyl-cyclobutyl]pyrimidine-5-carboxamide]: 10 to 100 nM; for `CC(=O)N1CCc2c(c(N3CCCc4cc(-c5cnn(C)c5)c(C(F)F)cc43)nn2C2CCC3(CC2)CCN(c2ncc(C(=O)NC4C(C)(C)C(Oc5ccc(C#N)c(Cl)c5)C4(C)C)cn2)C3)C1` (stereo not shown) [Compound 408, 2-[8-[5-acetyl-3-[7-(difluoromethyl)-6-(1-methylpyrazol-4-yl)-3,4-dihydro-2H-quinolin-1-yl]-6,7-dihydro-4H-pyrazolo[4,3-c]pyridin-1-yl]-2-azaspiro[4.5]decan-2-yl]-N-[3-(3-chloro-4-cyano-phenoxy)-2,2,4,4-tetramethyl-cyclobutyl]pyrimidine-5-carboxamide]: > 100 nM.
Then `CC(=O)N1CCc2c(c(-c3cccc4cc(-c5ccc(CC6CCN(c7ncc(C(=O)NC8C(C)(C)C(Oc9ccc(C#N)c(Cl)c9)C8(C)C)cn7)CC6)nc5)ncc34)nn2C2CCOCC2)C1` (stereo not shown) [Compound 140, 2-[4-[[5-[8-(5-acetyl-1-tetrahydropyran-4-yl-6,7-dihydro-4H-pyrazolo[4,3-c]pyridin-3-yl)-3-isoquinolyl]-2-pyridyl]methyl]-1-piperidyl]-N-[3-(3-chloro-4-cyano-phenoxy)-2,2,4,4-tetramethyl-cyclobutyl]pyrimidine-5-carboxamide], with < 1 nM.
Then `CC(=O)N1CCc2c(c(N3CCCc4cc(-c5cnn(C)c5)c(C(F)F)cc43)nn2C2CCN(C(=O)C3CCN(c4ccc(C(=O)NC5C(C)(C)C(Oc6ccc(C#N)c(Cl)c6)C5(C)C)cc4)CC3)CC2)C1` (stereo not shown) [Compound 116, 4-[4-[4-[5-acetyl-3-[7-(difluoromethyl)-6-(1-methylpyrazol-4-yl)-3,4-dihydro-2H-quinolin-1-yl]-6,7-dihydro-4H-pyrazolo[4,3-c]pyridin-1-yl]piperidine-1-carbonyl]-1-piperidyl]-N-[3-(3-chloro-4-cyano-phenoxy)-2,2,4,4-tetramethyl-cyclobutyl]benzamide], with > 100 nM.
Take `CC(=O)N1CCc2c(c(N3CCCc4cc(-c5cnn(C)c5)c(C(F)F)cc43)nn2C2CCN(C3CCC(Oc4ncc(C(=O)NC5C(C)(C)C(Oc6ccc(C#N)c(Cl)c6)C5(C)C)cn4)CC3)CC2)C1` (stereo not shown) [Compound 382, 2-[4-[4-[5-acetyl-3-[7-(difluoromethyl)-6-(1-methylpyrazol-4-yl)-3,4-dihydro-2H-quinolin-1-yl]-6,7-dihydro-4H-pyrazolo[4,3-c]pyridin-1-yl]-1-piperidyl]cyclohexoxy]-N-[3-(3-chloro-4-cyano-phenoxy)-2,2,4,4-tetramethyl-cyclobutyl]pyrimidine-5-carboxamide]: the EC50 is < 1 nM.
The same measure for `CC(=O)N1CCc2c(c(-c3cccc4cc(-c5cnn(C)c5)ncc34)nn2C2CCN(CC3C(C)CN(c4ncc(C(=O)NC5C(C)(C)C(Oc6ccc(C#N)c(Cl)c6)C5(C)C)cn4)CC3C)CC2)C1` (stereo not shown) [Compound 440, 2-[4-[[4-[5-acetyl-3-[3-(1-methylpyrazol-4-yl)-8-isoquinolyl]-6,7-dihydro-4H-pyrazolo[4,3-c]pyridin-1-yl]-1-piperidyl]methyl]-3,5-dimethyl-1-piperidyl]-N-[3-(3-chloro-4-cyano-phenoxy)-2,2,4,4-tetramethyl-cyclobutyl]pyrimidine-5-carboxamide]: < 1 nM; for `COc1cc(O[C@H]2C(C)(C)[C@H](NC(=O)c3ccc(N4CCN(C5CN(c6ccc(-c7cc8c(cc7C(F)F)N(c7nn(C9CCOCC9)c9c7CN(C(C)=O)CC9)CCC8)cn6)C5)CC4)cc3)C2(C)C)ccc1C#N` [Compound 326, 4-(4-(1-(5-(1-(5-acetyl-1-(tetrahydro-2H-pyran-4-yl)-4,5,6,7-tetrahydro-1H-pyrazolo[4,3-c]pyridin-3-yl)-7-(difluoromethyl)-1,2,3,4-tetrahydroquinolin-6-yl)pyridin-2-yl)azetidin-3-yl)piperazin-1-yl)-N-((1r,3r)-3-(4-cyano-3-methoxyphenoxy)-2,2,4,4-tetramethylcyclobutyl)benzamide]: < 1 nM.
As to `COc1cc(OC2C(C)(C)C(NC(=O)c3ccc(N4CCC5(CCC(n6nc(N7CCCc8cc(-c9cnn(C)c9)c(C(F)F)cc87)c7c6CCN(C(C)=O)C7)CC5)C4)cc3)C2(C)C)ccc1C#N` (stereo not shown) [Compound 405, 4-[8-[5-acetyl-3-[7-(difluoromethyl)-6-(1-methylpyrazol-4-yl)-3,4-dihydro-2H-quinolin-1-yl]-6,7-dihydro-4H-pyrazolo[4,3-c]pyridin-1-yl]-2-azaspiro[4.5]decan-2-yl]-N-[3-(4-cyano-3-methoxy-phenoxy)-2,2,4,4-tetramethyl-cyclobutyl]benzamide], the EC50 was in the range of 10 to 100 nM.
As to `CNC(=O)N1CCc2c(c(N3CCCc4cc(-c5cnn(C)c5)c(C(F)F)cc43)nn2C2CCN(CCOCc3ncc(C(=O)NC4C(C)(C)C(Oc5ccc(C#N)c(Cl)c5)C4(C)C)cn3)CC2)C1` (stereo not shown) [Compound 86, 1-[1-[2-[[5-[[3-(3-chloro-4-cyano-phenoxy)-2,2,4,4-tetramethyl-cyclobutyl]carbamoyl]pyrimidin-2-yl]methoxy]ethyl]-4-piperidyl]-3-[7-(difluoromethyl)-6-(1-methylpyrazol-4-yl)-3,4-dihydro-2H-quinolin-1-yl]-N-methyl-6,7-dihydro-4H-pyrazolo[4,3-c]pyridine-5-carboxamide], the EC50 is > 100 nM.
Regarding `COc1cc(OC2C(C)(C)C(NC(=O)c3ccc(N4CC5(CCC(N6CCC(n7nc(N8CCCc9cc(C#N)c(C(F)F)cc98)c8c7CCN(C(C)=O)C8)CC6)CC5)C4)cc3)C2(C)C)ccc1C#N` (stereo not shown) [Compound 452, 4-[7-[4-[5-acetyl-3-[6-cyano-7-(difluoromethyl)-3,4-dihydro-2H-quinolin-1-yl]-6,7-dihydro-4H-pyrazolo[4,3-c]pyridin-1-yl]-1-piperidyl]-2-azaspiro[3.5]nonan-2-yl]-N-[3-(4-cyano-3-methoxy-phenoxy)-2,2,4,4-tetramethyl-cyclobutyl]benzamide], the EC50 is < 1 nM.
The same measure for `COc1cc(OC2C(C)(C)C(NC(=O)c3ccc(N4CC(N5CCCC6(CCC(n7nc(N8CCCc9cc(-c%10cnn(C)c%10)c(C(F)F)cc98)c8c7CCN(C(C)=O)C8)CC6)C5)C4)cc3)C2(C)C)ccc1C#N` (stereo not shown) [Compound 416, 4-[3-[9-[5-acetyl-3-[7-(difluoromethyl)-6-(1-methylpyrazol-4-yl)-3,4-dihydro-2H-quinolin-1-yl]-6,7-dihydro-4Hpyrazolo[4,3-c]pyridin-1-yl]-2-azaspiro[5.5]undecan-2-yl]azetidin-1-yl]-N-[3-(4-cyano-3-methoxy-phenoxy)-2,2,4,4-tetramethyl-cyclobutyl]benzamide]: 1 to 10 nM; for `CC(=O)N1CCc2c(c(N3CCCc4cc(-c5cnn(C)c5)c(C(F)F)cc43)nn2CCOc2ncc(C(=O)NC3C(C)(C)C(Oc4ccc(C#N)c(Cl)c4)C3(C)C)cn2)C1` (stereo not shown) [Compound 46, 2-[2-[5-acetyl-3-[7-(difluoromethyl)-6-(1-methylpyrazol-4-yl)-3,4-dihydro-2H-quinolin-1-yl]-6,7-dihydro-4H-pyrazolo[4,3-c]pyridin-1-yl]ethoxy]-N-[3-(3-chloro-4-cyano-phenoxy)-2,2,4,4-tetramethyl-cyclobutyl]pyrimidine-5-carboxamide]: < 1 nM.
